Reference: PubChem BioAssay AID2060902 (Molecular Pharmacology Branch, DTP, NCI, 2025)

System: 485368-065-R3-J5-PDC spheroids with HUVEC/MSC, viability
Test: Anticancer human tumor 485368-065-R3-J5-PDC patient-derived pancreatic carcinoma cell line growth inhibition [RAS]
Conditions: for IC50: curve of first compound; for viability, T/C: stronger effect = lower value
Description: RAS pathway inhibitors in Combinations in Complex Spheroids
A high-throughput screen of multi-cell type tumor spheroids was designed to identify active combinations of RAS pathway inhibitors and targeted small molecules. Complex spheroids include a stromal component modeled by human endothelial cells (HUVEC) and fibroblasts modeled by human mesenchymal stem cells (MSCs). The concentration ranges selected for each drug and investigational agent were based upon clinically achievable concentrations if the clinical Cmax of the agent was known.
Compounds. The drugs and investigational agents: abemaciclib (NSC768073), cobimetinib (NSC768068), divarasib (GDC6063, NSC841802), docetaxel (NSC628503), GDC-1971 (RLY-1971, NSC841576), gemcitabine (NSC613327), inavolisib (NSC800729), ipatasertib (NSC767898), KB-0742 (NSC834161), MRTX-1133 (NSC836407), osimertinib (NSC779217), RMC-4630 (NSC839698), RMC-6236 (NSC851965), RMC-6291 (NSC852671), Ro-3306 (NSC812927), sapanisertib (NSC764658), SN-38 (NSC673596), staurosporine (NSC755774), SY5609 (NSC837396), and tovorafenib (DAY101, NSC766906), were obtained from the National Cancer Institute (NCI) Developmental Therapeutics Program Chemical Repository. The FDA-approved anticancer drug set is available from the NCI Developmental Therapeutics Program. […] The stock solutions were prepared in dimethyl sulfoxide (DMSO, Sigma-Aldrich, St. Louis, MO, cat. D2650) at 800-fold the tested concentration and stored at -70 degrees C prior to their use. All drugs and investigational agents were tested over a range starting from a high concentration at or near the clinical Cmax and decreasing in half-log increments. If the clinical Cmax for an agent had not been determined, the highest concentration tested was 10 microM.
Cell Culture. All cells were maintained in an incubator at 37 degrees C and 5% CO2 with 95% humidity. The PDC lines were cultured according to standard operating procedures established by the NCI PDMR. All PDCs were thawed and cultured in Matrigel-coated flasks prepared with a working solution of 1X Ham's F-12 nutrient mix, without supplementation (Invitrogen, Waltham, MA, cat. 11765054), 100 U/mL penicillin-streptomycin (Invitrogen, cat. 15140122), and 2.5% Matrigel (Corning Inc., Corning, NY, cat. 354248) for the first three passages. The 362531-283-R-J2-PDC and 782815-120-R-J1-PDC lines were cultured in 6C/Colon 1B media, which includes advanced DMEM/F-12 (Thermo Fisher Scientific, cat. 12634028), 10 mM HEPES (Thermo Fisher Scientific, cat. 15630080), 1X GlutaMAX supplement (Thermo Fisher Scientific, cat. 35050061), 0.1 mg/mL primocin (InvivoGen, San Diego, CA, cat. ant-pm-2), 10% defined fetal bovine serum, heat inactivated (HyClone Laboratories Inc., Logan, UT, cat. SH30070.03HI), 50% L-WRN conditioned media (ATCC, cat. CRL-3276), 1.25 mM N-Acetyl-L-cysteine (Sigma-Aldrich, cat. A9165), 10 mM nicotinamide (Sigma-Aldrich, cat. N0636), 1X B-27 supplement (Thermo Fisher Scientific, cat. 17504044), 1X N-2 supplement (Thermo Fisher Scientific, cat. 17502048), 50 ng/mL human EGF (Thermo Fisher Scientific, cat. PHG0311), and 10 microM Y-27632 dihydrochloride (Tocris Bioscience, cat. 1254). The K12877-001-R-J1-PDC line was cultured in 6I media, which includes all 6C/Colon 1B media plus 10 ng/mL human FGF-10 (PeproTech, cat. 100-26), 1 ng/mL human FGF-2 (PeproTech, cat. 100-18B), 1 µM prostaglandin E2 (Tocris Bioscience, cat. 2296), […] hydrocortisone (Sigma-Aldrich, cat. H4001), and […] bovine insulin (Sigma-Aldrich, cat. I6634). The K86415-001-R-J1-PDC line was cultured in 6D media, which includes all 6C/Colon 1B media components minus the L-WRN conditioned media. The 485176-168-R4-J1-PDC was cultured in PANC media, which includes all 6C/Colon 1B media plus 100 ng/mL human FGF-10 (PeproTech, cat. 100-26), 500 nM SB-431542 (Selleckchem, cat. S1067), and 10 nM gastrin (Tocris Bioscience, cat. 3006). […]

[1] = second compound 0.0316 µM, first compound 0.0316 µM
[2] = second compound 0.0316 µM, first compound 0.1 µM
[3] = second compound 0.0316 µM, first compound 0.316 µM
[4] = second compound 0.0316 µM, first compound 1 µM
[5] = second compound 0.1 µM, first compound 0.0316 µM
[6] = second compound 0.1 µM, first compound 0.1 µM
[7] = second compound 0.1 µM, first compound 0.316 µM
[8] = second compound 0.1 µM, first compound 1 µM
[9] = second compound 0.316 µM, first compound 0.0316 µM
[10] = second compound 0.316 µM, first compound 0.1 µM
[11] = second compound 0.316 µM, first compound 0.316 µM
[12] = second compound 0.316 µM, first compound 1 µM
[13] = second compound 1 µM, first compound 0.0316 µM
[14] = second compound 1 µM, first compound 0.1 µM
[15] = second compound 1 µM, first compound 0.316 µM
[16] = second compound 1 µM, first compound 1 µM
[17] = second compound 3.16 µM, first compound 0.0316 µM
[18] = second compound 3.16 µM, first compound 0.1 µM
[19] = second compound 3.16 µM, first compound 0.316 µM
[20] = second compound 3.16 µM, first compound 1 µM
[21] = second compound 10 µM, first compound 0.0316 µM
[22] = second compound 10 µM, first compound 0.1 µM
[23] = second compound 10 µM, first compound 0.316 µM
[24] = second compound 10 µM, first compound 1 µM
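Further: spheroids exposed to agents for seven days before readout.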

CC(Nc1ccc2c(c1)OCCn1cc(N3C(=O)OCC3C(F)F)nc1-2)C(N)=O (centres undefined) + C#Cc1c(F)ccc2cc(O)cc(-c3ncc4c(N5CC6CCC(C5)N6)nc(OCC56CCCN5CC(F)C6)nc4c3F)c12
IC50 (second compound 0.0316 µM): > 10000 nM
IC50 (second compound 0.1 µM): > 10000 nM
IC50 (second compound 0.316 µM): 9820 nM
IC50 (second compound 1 µM): > 10000 nM
IC50 (second compound 3.16 µM): 1610 nM
IC50 (second compound 10 µM): < 31.6 nM
viability, T/C [1]: 95.9%
viability, T/C [2]: 93.4%
viability, T/C [3]: 85.4%
viability, T/C [4]: 80.1%
viability, T/C (second compound 0.0316 µM, first compound 3.16 µM): 74.5%
viability, T/C (second compound 0.0316 µM, first compound 10 µM): 51.9%
viability, T/C [5]: 101%
viability, T/C [6]: 90.3%
viability, T/C [7]: 82.4%
viability, T/C [8]: 91.2%
viability, T/C (second compound 0.1 µM, first compound 3.16 µM): 77.9%
viability, T/C (second compound 0.1 µM, first compound 10 µM): 57.2%
viability, T/C [9]: 92.7%
viability, T/C [10]: 93.5%
viability, T/C [11]: 91.5%
viability, T/C [12]: 85.7%
viability, T/C (second compound 0.316 µM, first compound 3.16 µM): 81.7%
viability, T/C (second compound 0.316 µM, first compound 10 µM): 48.8%
viability, T/C [13]: 83.4%
viability, T/C [14]: 85.8%
viability, T/C [15]: 90.7%
viability, T/C [16]: 72.6%
viability, T/C (second compound 1 µM, first compound 3.16 µM): 69.1%
viability, T/C (second compound 1 µM, first compound 10 µM): 51.5%
viability, T/C [17]: 73.4%
viability, T/C [18]: 56.2%
viability, T/C [19]: 54.5%
viability, T/C [20]: 60.5%
viability, T/C (second compound 3.16 µM, first compound 3.16 µM): 46.8%
viability, T/C (second compound 3.16 µM, first compound 10 µM): 32.8%
viability, T/C [21]: 33.8%
viability, T/C [22]: 31%
viability, T/C [23]: 24.6%
viability, T/C [24]: 25.9%
viability, T/C (second compound 10 µM, first compound 3.16 µM): 21%
viability, T/C (second compound 10 µM, first compound 10 µM): 18.6%

O=C(c1ccc(F)c(F)c1Nc1ccc(I)cc1F)N1CC(O)([C@@H]2CCCCN2)C1 + C#Cc1c(F)ccc2cc(O)cc(-c3ncc4c(N5CC6CCC(C5)N6)nc(OCC56CCCN5CC(F)C6)nc4c3F)c12
IC50 (second compound 0.0316 µM): 31.5 nM
IC50 (second compound 0.1 µM): 33.7 nM
IC50 (second compound 0.316 µM): 37.5 nM
IC50 (second compound 1 µM): 26.3 nM
IC50 (second compound 3.16 µM): 8.98 nM
IC50 (second compound 10 µM): < 3.16 nM
viability, T/C (second compound 0.0316 µM, first compound 0.00316 µM): 90.3%
viability, T/C (second compound 0.0316 µM, first compound 0.01 µM): 65.9%
viability, T/C [1]: 49.5%
viability, T/C [2]: 31.9%
viability, T/C [3]: 28.1%
viability, T/C [4]: 8.9%
viability, T/C (second compound 0.1 µM, first compound 0.00316 µM): 80.8%
viability, T/C (second compound 0.1 µM, first compound 0.01 µM): 68.9%
viability, T/C [5]: 50%
viability, T/C [6]: 32.3%
viability, T/C [7]: 26%
viability, T/C [8]: 9.17%
viability, T/C (second compound 0.316 µM, first compound 0.00316 µM): 91.1%
viability, T/C (second compound 0.316 µM, first compound 0.01 µM): 73%
viability, T/C [9]: 46.6%
viability, T/C [10]: 39.4%
viability, T/C [11]: 25.4%
viability, T/C [12]: 9%
viability, T/C (second compound 1 µM, first compound 0.00316 µM): 87.4%
viability, T/C (second compound 1 µM, first compound 0.01 µM): 62%
viability, T/C [13]: 48.6%
viability, T/C [14]: 31.1%
viability, T/C [15]: 22.5%
viability, T/C [16]: 8.96%
viability, T/C (second compound 3.16 µM, first compound 0.00316 µM): 58.8%
viability, T/C (second compound 3.16 µM, first compound 0.01 µM): 50%
viability, T/C [17]: 38.7%
viability, T/C [18]: 24%
viability, T/C [19]: 19.9%
viability, T/C [20]: 5.77%
viability, T/C (second compound 10 µM, first compound 0.00316 µM): 45.1%
viability, T/C (second compound 10 µM, first compound 0.01 µM): 29.8%
viability, T/C [21]: 26.5%
viability, T/C [22]: 17.2%
viability, T/C [23]: 11.2%
viability, T/C [24]: 3.65%
